# Results from patent publication US5985824A, “Methods and compositions for treating cystic fibrosis” (priority 1997, dated 1999).
# “Also recorded” adds a separate entry of the source. Like-named read-outs stand apart in the source and are kept apart here.
# Assays:
# [1] = test system: ΔF508-CFTR (LLCPK1-ΔF508 cells); assay: SPQ assay, cAMP-stimulated Cl- channel activity, LLCPK1-ΔF508 cells; type: cell-based
# Description: The cAMP-dependent CFTR Cl^- channel activity was assessed using the halide-sensitive fluorophore 6-methoxy-N-(3-sulfopropyl)-quinolinium (SPQ) essentially as described previously (Cheng et al., (1995), supra.; Marshall et al., supra.). Briefly, the cells were treated with different amounts of DSG for the times specified. At the end of the treatment period, the cells were loaded with SPQ by hypotonic shock for 4 min at room temperature. SPQ fluorescence initially was quenched by incubating the cells for up to 30 min in a NaI buffer (135 mM NaI, 2.4 mM K2 HPO4, 0.6 mM KH2 PO4, 1 mM MgSO4, 1 mM CaSO4, 10 mM dextrose, and 10 mM N-2 hydroxyethylpiperazine-N'2-ethanesulfonic acid, pH 7.4). After measuring the baseline fluorescence (Fo) for 2 min., the NaI solution was replaced with one containing 135 mM NaNO3, and fluorescence was measured for another 16 min. […]
# An increase in halide permeability is reflected by a more rapid increase in SPQ fluorescence. […] Differences in absolute levels reflect quantitative differences between groups in SPQ loading, size of cells, or number of cells studied. The data are presented as means± SE of fluorescence at time t (Ft) minus the baseline fluorescence (Fo, the average fluorescence measured in the presence of I^- for 2 min. before ion substitution) and are representative of results obtained under each condition. […]
# [2] = test system: ΔF508-CFTR (C127-ΔF508-low cells); assay: immunoprecipitation analysis for mature band C-CFTR in C127-ΔF508-low cells; type: cell-based; details: DSG 10 to 100 μg/ml, 48 to 72 h
# Description: Detailed procedures for preparing cell lysates, immunoprecipitation, phosphorylation of CFTR using protein kinase A and [γ^32 P]ATP, and polyacrylamide gel electrophoresis have all been described previously (Cheng et al., (1995), supra.; Marshall et al., supra.).
# C127-ΔF508-low (mouse mammary tumor) is a recombinant cell line stably transfected with the cDNA encoding the mutant ΔF508-CFTR (Cheng et al. (1995), supra.; Marshall et al. (1994), J. Biol. Chem. 269: 2987-2995). […] C127-mock is a cell line that has been stably transfected with the backbone of the expression vector used to generate C127-ΔF508-low (Cheng et al. (1995), supra.). LLCPK1 -ΔF508 (pig kidney epithelial) is a recombinant cell line stably expressing low levels of the mutant ΔF508-CFTR protein (Marshall et al., supra.). The details of the generation, characterization and routine propagation of these cell lines has been described (Cheng et al. (1995), supra.; Marshall et al., supra.).
# To test whether treatment with DSG may interfere with the ability of hsp70 to retain ΔF508-CFTR in the ER, recombinant C127 cells expressing ΔF508-CFTR were seeded onto glass coverslips and were exposed to DSG (10 to 100 μg/ml) (Bristol Myers Squibb, Seattle, Wa.) for 48 to 72 h. Analysis for evidence of mature band C-CFTR (Cheng et al. (1990), supra.) which would be indicative of processing of ΔF508-CFTR in the Golgi was performed. […]
# [3] = molecular target: hsc70 (hsp70); details: cited from earlier work
smiles,measurement,setting,value
"N=C(N)NCCCCCCC(=O)NC(O)C(=O)NCCCCNCCCN (centres unmarked) [DSG, deoxyspergualin]","cAMP-stimulated Cl- channel activity, in words",[1],marginal; also recorded: Data similar to those described for C127-ΔF508-low cells
same,mature band C form of CFTR,[2],the presence of any mature band C-form of CFTR could not be demonstrated; also recorded: no discernible evidence of the mature band C form of CFTR
same,Kd,"[3]; hsc70, Nadeau et al. (1994), read-out: Kd value for DSG binding to hsc70",4 µM
same,Kd,"[3]; hsp70, read-out: kds, DSG-hsp complexes",4 to 5 µM
same,"affinity for hsps, in words","[3]; hsps, Nadler et al. (1992), Nadeau et al. (1994)",Pure human hsp90 and hsp70 have equivalent affinities for DSG
